≈ marks a conversion by molar mass, not a printed value. Where a SMILES comes first, the peptide text is derived from it.
Columns and labels:
[1] = tested on: C. glabrata; assay type: cell-based, Candida glabrata; settings: 48 h
Experimental: (§1) Two Candida albicans isolates were purchased from the ATCC (No. 24433 and 76615). The other yeast isolates were obtained from the collection of Fondazione Ca' Granda- Ospedale Maggiore Policlinico, Milano. The collection included C. albicans (7 isolates), C. glabrata (3 isolates), and C. krusei (3 isolates). Antifungal susceptibility testing was performed using the broth microdilution method according to the NCCLS M27-A guidelines (National Committee for Clinical Laboratory Standards. 1997, Reference method for broth dilution antifungal susceptibility testing of yeasts and approved standard NCCLS document M27-A. National Committee for Clinical Laboratory Standards, Wayne, Pa.). […] After 48 h of incubation, the plates were inspected for purity. A colony was taken from the agar plate and transferred into 5 mL Sabouraud-dextrose broth and incubated for 48 h at 35°C. Cells were centrifuged at 1,000× g for 10 min and the pellet was washed twice with distilled water. Cells were counted and suspended in RPMI 1640 medium buffered to pH 7.0 with 0.165 mol l^−1 morpholinepropanesulphonic acid (MOPS) buffer (Sigma) to obtain the two times test inoculum (1×10^3 to 5×10^3 CFU/mL). […] The MIC90, i.e. the minimum inhibitory concentrations endpoint were determined as 90% reduction in turbidity measured using a spectrophotometer (Titertek multiscan at 690 nm wave length).

[2] = tested on: C. krusei; assay type: cell-based, Candida krusei; settings: 48 h
Experimental: as §1

[3] = tested on: Candida strains (C. albicans, C. glabrata, C. krusei); assay: Anti-Candida assay, overall result in words; assay type: cell-based, Candida spp; settings: standard culture conditions, broth culture medium
Experimental: as §1

[4] = tested on: C. albicans; assay type: cell-based, Candida albicans; settings: 48 h
Experimental: as §1

[5] = tested on: Acinetobacter baumani ATCC 19606; assay type: cell-based; settings: ATCC 19606, 18 h
Experimental: (§2) The strains used for the antimicrobial assays were the Gram-negative bacteria Acinetobacter baumani ATCC 19606, Escherichia coli D21, Pseudomonas aeruginosa ATCC 27853, and Pseudomonas syringae pv tabaci 1918NCPPB and the Gram-positive bacteria Bacillus megaterium Bm11, Staphylococcus aureus ATCC 25923, and Staphylococcus epidermidis ATCC 12228. Susceptibility testing was performed by adapting the microbroth dilution method outlined by the Clinical and Laboratory Standards Institute, using sterile 96-well plates (Falcon NJ, USA). The bacterial growth was aseptically measured by absorbance at 590 nm with a spectrophotometer (UV-1700 Pharma Spec Shimadzu, Tokyo, Japan). Afterwards, aliquots (50 µl) of bacteria in mid-log phase at a concentration of 2×10^6 colony-forming units (CFU)/mL in culture medium (Mueller-Hinton, MH) were added to 50 µl of MH broth containing the peptide in serial 2-fold dilutions ranging from 1.56 to 100 µM. Inhibition of microbial growth was determined by measuring the absorbance at 590 nm, after an incubation of 18 h at 37°C with a microplate reader (Infinite M200; Tecan, Salzburg, Austria).

[6] = tested on: Bacillus megaterium Bm11; assay type: cell-based; settings: Bacillus Bm11, 18 h
Experimental: as §2

[7] = tested on: Escherichia coli D21; assay type: cell-based; settings: D21, 18 h
Experimental: as §2

[8] = tested on: Pseudomonas aeruginosa ATCC 27853; assay type: cell-based; settings: ATCC 27853, 18 h
Experimental: as §2

[9] = tested on: Pseudomonas syringae pv tabaci 1918NCPPB; assay type: cell-based; settings: 18 h
Experimental: as §2

[10] = tested on: Staphylococcus aureus ATCC 25923; assay type: cell-based; settings: ATCC 25923, 18 h
Experimental: as §2

[11] = tested on: Staphylococcus epidermidis ATCC 12228; assay type: cell-based; settings: ATCC 12228, 18 h
Experimental: as §2

[12] = tested on: HaCaT keratinocyte cell line; assay: Cytotoxic activity, MTT colorimetric method; assay type: cell-based, human; settings: highest peptide concentration used (100 µM), 24 h
Experimental: Effects on viability was tested in the immortalised keratinocyte cell line HaCaT using the [3(4,5-dimethylthiazol-2yl)2,5-diphenyltetrazolium bromide] (MTT) colorimetric method in which the intensity of the dye is proportional to the number of viable cells. MTT is a tetrazolium salt which is reduced to a colored formazan product by mitochondrial reductases present only in metabolically active cells. Cells were cultured in Dulbecco's modified Eagle's medium (DMEM; Sigma) supplemented with 10% heat inactivated fetal bovine serum, glutamine (4 mM) and gentamicin. Afterwards, cells were plated in triplicate wells of a microtiter plate, at 4×10^4 cells/well in DMEM supplemented with 2% serum without antibiotic. After overnight incubation at 37°C in a 5% CO2 atmosphere, the medium was replaced with […] fresh DMEM supplemented with the peptides at different concentrations. The plate was incubated for 24 h at 37°C in a 5% CO2 atmosphere. Then, DMEM was removed and replaced with Hank's medium (136 mM NaCl; 4.2 mM Na2HPO4; 4.4 mM KH2PO4; 5.4 mM KCl; 4.1 mM NaHCO3, pH 7.2, supplemented with 20 mM D-glucose) containing 0.5 mg/ml MTT. After 4 h incubation, the formazan crystals were dissolved by adding 100 µl of acidified isopropanol and absorption of each well was measured using a microplate reader (Infinite M200; Tecan, Salzburg, Austria) at 570 nm. Cell viability was e expressed as percentage of viability in control cells (cells not treated with peptide).
Figure 1 Effects of the synthetic melanocortins on viability of HaCat cells. Cells were plated in wells of a microtiter plate, at 4×10^4 cells/well in DMEM supplemented with 2% serum without antibiotic. After overnight incubation at 37°C in a 5% CO2 atmosphere, the medium was replaced with 100 µl fresh DMEM supplemented with the peptides at different concentrations. […] Cell viability is expressed as percentage of viability in control cells (cells not treated with the peptide).

Row | SMILES | MIC 90 [1] [µM] | MIC 90 [2] [µM] | antimicrobial / anti-Candida activity (in words) [3] | MIC 90 [4] [µM] | further results
1 | CC(C)[C@H](NC(=O)[C@H](Cc1ccccc1)NC(=O)[C@H](CCCCN)NC(=O)C(C)(C)NC(=O)[C@H](Cc1c[nH]c2ccccc12)NC(=O)[C@H](CCCNC(=N)N)NC(=O)[C@@H](Cc1ccc2ccccc2c1)NC(=O)[C@@H](N)Cc1c[nH]cn1)C(N)=O [Peptide 1, H-His-D(2′)Nal-Arg-Trp-Aib-Lys-Phe-Val-NH2] (HELM PEPTIDE1{H.[O=C([C@@H](Cc1ccc2ccccc2c1)N[*:1])[*:2]].R.W.[Aib].K.F.V.[am]}$$$$V2.0) | >100 | 97 (≈ 112 µg/mL) | did not show antimicrobial activity |  | 
2 | CC(C)[C@H](NC(=O)[C@H](Cc1ccccc1)NC(=O)[C@H](CCCCN)NC(=O)C1(NC(=O)[C@H](Cc2c[nH]c3ccccc23)NC(=O)[C@H](CCCNC(=N)N)NC(=O)[C@@H](Cc2ccc3ccccc3c2)NC(=O)[C@@H](N)Cc2c[nH]cn2)CCC1)C(N)=O [Peptide 5, H-His-D(2′)Nal-Arg-Trp-Ac4c -Lys-Phe-Val-NH2] (HELM PEPTIDE1{H.[O=C([C@@H](Cc1ccc2ccccc2c1)N[*:1])[*:2]].R.W.[O=C(C1(N[*:1])CCC1)[*:2]].K.F.V.[am]}$$$$V2.0) | >100 | 99 (≈ 115 µg/mL) | weak activity |  | 
3 | CC(C)[C@H](NC(=O)[C@H](Cc1ccccc1)NC(=O)[C@H](CCCCN)NC(=O)CCNC(=O)[C@H](Cc1c[nH]c2ccccc12)NC(=O)[C@H](CCCNC(=N)N)NC(=O)[C@@H](Cc1ccc2ccccc2c1)NC(=O)[C@@H](N)Cc1c[nH]cn1)C(N)=O [Peptide 11, H-His-D(2′)Nal-Arg-Trp-βAla-Lys-Phe-Val-NH2] (HELM PEPTIDE1{H.[O=C([C@@H](Cc1ccc2ccccc2c1)N[*:1])[*:2]].R.W.[bAla].K.F.V.[am]}$$$$V2.0) | >100 | >100 | no anti-Candida activity | >100 | 
4 | CCC(CC)(NC(=O)[C@H](Cc1c[nH]c2ccccc12)NC(=O)[C@H](CCCNC(=N)N)NC(=O)[C@@H](Cc1ccc2ccccc2c1)NC(=O)[C@@H](N)Cc1c[nH]cn1)C(=O)N[C@@H](CCCCN)C(=O)N[C@@H](Cc1ccccc1)C(=O)N[C@H](C(N)=O)C(C)C [Peptide 2, H-His-D(2′)Nal-Arg-Trp-Deg-Lys-Phe-Val-NH2] (HELM PEPTIDE1{H.[O=C([C@@H](Cc1ccc2ccccc2c1)N[*:1])[*:2]].R.W.[CCC(CC)(N[*:1])C(=O)[*:2]].K.F.V.[am]}$$$$V2.0) | >100 | >100 | did not show antimicrobial activity | >100 | 
5 | CC(C)[C@H](NC(=O)[C@H](Cc1ccccc1)NC(=O)[C@H](CCCCN)NC(=O)C1(NC(=O)[C@H](Cc2c[nH]c3ccccc23)NC(=O)[C@H](CCCNC(=N)N)NC(=O)[C@@H](Cc2ccc3ccccc3c2)NC(=O)[C@@H](N)Cc2c[nH]cn2)CCCC1)C(N)=O [Peptide 6, H-His-D(2′)Nal-Arg-Trp-Ac5c-Lys-Phe-Val-NH2] (HELM PEPTIDE1{H.[O=C([C@@H](Cc1ccc2ccccc2c1)N[*:1])[*:2]].R.W.[O=C(C1(N[*:1])CCCC1)[*:2]].K.F.V.[am]}$$$$V2.0) | >100 | >100 | substantial activity |  | 
6 | CC(C)[C@H](NC(=O)[C@H](Cc1ccccc1)NC(=O)[C@H](CCCCN)NC(=O)C1(NC(=O)[C@H](Cc2c[nH]c3ccccc23)NC(=O)[C@H](CCCNC(=N)N)NC(=O)[C@@H](Cc2ccc3ccccc3c2)NC(=O)[C@@H](N)Cc2c[nH]cn2)CCCCC1)C(N)=O [Peptide 7, H-His-D(2′)Nal-Arg-Trp-Ac6c -Lys-Phe-Val-NH2] (HELM PEPTIDE1{H.[O=C([C@@H](Cc1ccc2ccccc2c1)N[*:1])[*:2]].R.W.[O=C(C1(N[*:1])CCCCC1)[*:2]].K.F.V.[am]}$$$$V2.0) | >100 |  | substantial activity | 51 (≈ 60.9 µg/mL) | 
7 | CC(C)[C@H](NC(=O)[C@H](Cc1ccccc1)NC(=O)[C@H](CCCCN)NC(=O)C1(NC(=O)[C@H](Cc2c[nH]c3ccccc23)NC(=O)[C@H](CCCNC(=N)N)NC(=O)[C@@H](Cc2ccc3ccccc3c2)NC(=O)[C@@H](N)Cc2c[nH]cn2)Cc2ccccc2C1)C(N)=O [Peptide 8, H-His-D(2′)Nal-Arg-Trp-Aic-Lys-Phe-Val-NH2] (HELM PEPTIDE1{H.[O=C([C@@H](Cc1ccc2ccccc2c1)N[*:1])[*:2]].R.W.[O=C(C1(N[*:1])Cc2ccccc2C1)[*:2]].K.F.V.[am]}$$$$V2.0) | 100 (≈ 123 µg/mL) |  |  |  | MIC 100 [5]: 12.5 µM (≈ 15.3 µg/mL); MIC 100 [6]: 1.56 µM (≈ 1.91 µg/mL); MIC 100 [7]: 12.5 µM (≈ 15.3 µg/mL); MIC 100 [8]: 50 µM (≈ 61.4 µg/mL); MIC 100 [9]: 25 µM (≈ 30.7 µg/mL); MIC 100 [10]: 12.5 µM (≈ 15.3 µg/mL); MIC 100 [11]: 6.25 µM (≈ 7.67 µg/mL); cell death / killing of human keratinocytes [12]: 50–100%
8 | CC(C)[C@H](NC(=O)[C@H](Cc1ccccc1)NC(=O)[C@H](CCCCN)NC(=O)[C@@H]1CCC[C@H]1NC(=O)[C@H](Cc1c[nH]c2ccccc12)NC(=O)[C@H](CCCNC(=N)N)NC(=O)[C@@H](Cc1ccc2ccccc2c1)NC(=O)[C@@H](N)Cc1c[nH]cn1)C(N)=O [Peptide 12, H-His-D(2′)Nal-Arg-Trp-Acpc-Lys-Phe-Val-NH2] (HELM PEPTIDE1{H.[O=C([C@@H](Cc1ccc2ccccc2c1)N[*:1])[*:2]].R.W.[O=C([C@@H]1CCC[C@H]1N[*:1])[*:2]].K.F.V.[am]}$$$$V2.0) | >100 | >100 | no anti-Candida activity | >100 | 
9 | CC(C)[C@H](NC(=O)[C@H](Cc1ccccc1)NC(=O)[C@H](CCCCN)NC(=O)CNC(=O)CNC(=O)[C@H](Cc1c[nH]c2ccccc12)NC(=O)[C@H](CCCNC(=N)N)NC(=O)[C@@H](Cc1ccc2ccccc2c1)NC(=O)[C@@H](N)Cc1c[nH]cn1)C(N)=O [Peptide 13, H-His-D(2′)Nal-Arg-Trp-Gly-Gly-Lys-Phe-Val-NH2] (HELM PEPTIDE1{H.[O=C([C@@H](Cc1ccc2ccccc2c1)N[*:1])[*:2]].R.W.G.G.K.F.V.[am]}$$$$V2.0) | >100 | >100 | no activity | >100 | 

Reference: PMC3634028, “Novel α-MSH Peptide Analogues with Broad Spectrum Antimicrobial Activity” (PLoS ONE, 2013)
